Laboratory results published in patent US11147763B2, “Vaginal ring with visual indication of use” (RESEARCH TRIANGLE INSTITUTE, priority 2015, dated 2021).

Assays:
[1] = Screen of pH-based color changing tracers in biocompatible-grade silicone material; assay type: physicochemical; conditions: biocompatible-grade silicone placed into an aqueous environment
Experimental: For the second approach, research efforts focused on developing systems for analyzing biological constituents that diffuse into the ring causing a pH change (FIG. 2B, ii). To accomplish this testing strategy, a variety of pH-based color changing formulations were evaluated in biocompatible-grade silicone material. […] This material screen also facilitated the abandonment of tracers with poor performance, such as highly hydrophilic molecular families with high expulsion tendencies.

[2] = Diffusion of indicator out of silicone (PDMS) vaginal ring into surrounding solution; assay type: physicochemical; conditions: aqueous conditions, over the course of one week (FIG. 3B)
Experimental: Two different approaches were tested to assess the usage of the vaginal ring (FIG. 2A and FIG. 2B). First, a system with signal change resultant of indicator diffusion (i) out of the ring was tested (FIG. 2A).
In these cases, silicone (polydimethyl siloxane, PDMS) was utilized in combination with rhodamine-B, fluorescein, and a rhodamine-B/Brilliant Blue combination. (FIG. 3A).

Structure (SMILES) | leaching of tracer from the silicone material [1] | release of indicator from the silicone material [2]
O=C1c2ccccc2C(=O)c2c1ccc(O)c2O [Alazarin] | readily leached from the silicone material | –
CN(C)c1ccc(/N=N/c2ccccc2C(=O)O)cc1 [Methyl Red] | readily leached from the silicone material | –
CCN(CC)c1ccc2c(-c3ccccc3C(=O)O)c3ccc(=[N+](CC)CC)cc-3oc2c1.[Cl-] [rhodamine-B] | – | readily released from the silicone material
